The text below walks through data of PMC10916291, “Cocrystals of a coumarin derivative: an efficient approach towards anti-leishmanial cocrystals against MIL-resistant Leishmania tropica” (IUCrJ, 2024).

In series [1] the test system is 3T3 (normal mouse fibroblast) cell line. As to the kind of experiment: in vitro. The procedure: (§1) In vitro biological activities of CU, coformers and synthesized cocrystals 2–6 were evaluated for their MIL-resistant L. tropica promastigotes and cytotoxicity against […]. Detailed methodologies of the biological assays are provided in the supporting information.
(§2) 2. Cytotoxicity assay Protocol:
(§3) Cy totoxicity o f compounds was evaluated in 96-well flat-bo ttomed micro plates by using the standard MTT (3-[4, 5-dimethylthiazole-2-y l]-2 , 5-d iph eny l-tetrazolium bromide) colorimetric assay. For this purpose, 3T3 (mouse fibroblast) cells were cultured in Dulb ecco’s Modified Eagle Medium, supplemented with 5% of fetal bovine serum (FBS), 100 IU/mL of penicillin and 100 µg / m L of strep tomy cin in 75 cm2 flasks, and kept in 5% CO2 incubator at 37° C.
(§4) Exponentially growing cells were harvested, counted with haemocytometer, and diluted with a particular medium. Cell culture with the concentration of 5x10^4 cells/mL was p rep ared and introduced (100 µL/well) into 96-well plates. After overnight incubation, medium was removed and 200 µL of fresh medium was added with different concentrations of compounds (1-30 µM).
(§5) After 48 hrs. 200 µL MTT (0.5 mg/mL) was added to each well, and incubated further for 4 hrs.
(§6) Subsequently, 100 µL of DMSO was added to each well. The extent of MTT reduction to formazan within cells was calculated by measuring the absorbance at 540 nm, using a micro-plate reader (Spectra Max p lus, Molecular Devices, USA). The cy totoxicity was recorded as a concentration causing 50% growth inhibition (IC50) of 3T3 cells. The percent inhibition was calculated by using the fo llo wing formula:
(§7) % Inhibition = 100-((mean of O.D of test compound – mean of O.D of negative control)/ (mean of O.D. of positive control – mean of O.D of negative control)*100).
(§8) The results (% inhibition) were processed by using Soft- Max Pro software (Molecular Devices, […]

Series [2] can be described thus: Thermal analysis (DSC and TGA). In kind it is physicochemical. As to conditions: heating rate 10°C min^-1, dry N2. As to the method: DSC and TGA were performed on a LINSEIS STA PT1600 with heating rate of 10°C min^−1. About 20–25 mg of samples were crimped in a ceramic pan and scanned from 30 to 600°C under dry N2 gas purging. The Linseis TA software (version 1.0; Linseis Messgeraete GmbH) was employed for collecting data.

Series [3] relates to MIL-resistant L. tropica promastigotes. The experiment in a line: microbe, parasite or virus in culture. In kind it is cell-based, Leishmania tropica. As to conditions: for IC50: Leishmania tropica, 72 h, read-out: Anti-leishmanial activity against MIL-resistant L. tropica via MTT assay (IC50 = µM ± SEM). As to the method: as §1
(§9) Biological activities evaluations
1. MIL-resistant L. tropica assay protocol
Miltefosine (hexadecylphosphocholine) (LEAP Chem), RPMI-1640 culture medium (Gibco), supplemented with 10% (v/v) heat-inactivated fetal bovine serum (FBS) (Gibco), 2 mM L-glutamine, 1% penicillin/ streptomycin (Sigma), DMSO (ALC labscan), and Trypan blue […]
Clinical Isolate and Generation of MIL resistant line:
Clinical isolate (L. tropica promastigote) from the endemic area of Islamabad (Pakistan) was ob tained from a patient. Promastigote cultures were maintained at 26 °C in RPMI medium, containing 15 % FBS and 1 % penicillin–streptomycin mixture. Clinical isolate was characterized by sequencing.
Generation of Miltefosine-unresponsive strain was carried under high MIL pressure by in vitro passage with stepwise increase in the MIL concentration. At each step, parasites were cultured, and passaged every 3–4 days at an initial concentration of 5x10^5 promastigotes/mL in order to achieve the stable growth, as compared to the wild type isolate. Growth rates were measured for resistant populations and compared with the WT strain. Parasites were counted at an initial concentration of 5 x 10^5 parasites/mL, and growth was measured daily using a Neubauer chamber until the population reached stationary phase. Fu rth ermore, the fluorescence microscopic investigations via DAPI stain were also carried out to supplement the study, and for […]
Promastigote Growth Inhibition Assay
(IC50) of resistant cell proliferation concerning untreated controls, the MTT assay was employed.
The promastigotes in their log phase were used in 96-well plates. 1 × 106 wild-type and resistant […]
promastigotes were dispensed in 96-well plates, and incubated with tested compounds at a range concentration of 200–10 μM (stock concentration 1mg/mL and the working con centrations started from 250 µg/mL) at 27°C for 72 h. After incubation of 72 h, MTT dye (3-(4,5-dimethylthiazol-2-yl)-2,5-diphenyl-2H-tetrazolium bromide) was added and further incubate it for 3–4 h. Amphotericin B, pantamidine and miltefosine were used as th e positive control, untreated promastigotes were used as negative control moreover DMSO control was also added in the study as a stock solution of the compounds that were prepared in DMSO. All the experiments were performed in triplicates. After completion of the experiment the absorbance by Multiskan ascent plate reader at 452 nm and percent inhibition was calculated by the following […]
Cytotoxic concentration (%) = [100- (Absorbance of test)/ (Absorbance of solv ent con trol) ×100]

The nature of another series: in vitro. As to conditions: mouse. The procedure: as §1, §2, §3, §4, §5, §6, §7, §8
The subject of series [4] is MIL-resistant L. tropica promastigotes. As to the kind of experiment: Growth of MIL-resistant L. tropica line generated by step-wise selection (trypan blue count). As to conditions: step-wise selection of MIL up to 196 µM, Fig. 9. In kind it is cell-based, Leishmania tropica. As to the method: L. tropica MIL-unresponsive/resistant parasites were developed and maintained using a step-wise selection of the drug MIL up to a concentration of 196 µM. No significant differences in growth patterns were observed between WT- and MIL-resistant strains.
Figure 9 MIL-resistant L. tropica line generated by step-wise selection. 1 × 10^6 log-phase promastigotes were incubated in the presence of a range of drug concentrations. The surviving cells were quantified with trypan blue dye. Populations of parasites were grown in increasing concentrations of MIL, showing increased resistance to MIL. Bars of both resistant and WT parasites represent the more or less similar growth patterns.
as §9
1. MIL-resistant L. tropica assay protocol […]
Generation of Miltefosine-unresponsive strain was carried under high MIL pressure by in vitro passage with stepwise increase in the MIL concentration. […] Growth rates were measured for resistant populations and compared with the WT strain. Parasites were counted at an initial concentration of 5 x 10^5 parasites/mL, and growth was measured daily using a Neubauer chamber until the population reached stationary phase. Fu rth ermore, the fluorescence microscopic investigations via DAPI stain were also carried out to supplement the study, and for […]

Read-outs that look alike come from different tables or passages of the source.

As to `O=C(O)c1cc2ccccc2oc1=O` [Cocrystal 1a, Coumarin-3-carboxylic acid], the “Cytotoxic activity 3T3 cell line (IC50 = µM ± SEM)” value in series [1] is “Non-cytotoxic”. Also, in series [2], the “Thermal stability up to (TGA/DSC)” value came out at 191.78 °C.
Taken in the same sequence, the figures for `Nc1ncccc1Br` [Cocrystal 1b, 2-amino-3-bromopyridine] were “Non-cytotoxic” and 67.29 °C.
Taken in the same sequence, the figures for `Nc1ccc(C(F)(F)F)cn1` [Cocrystal 1c, 2-amino-5-(trifluoromethyl)-pyridine] were “Non-cytotoxic” and 48.38 °C.
For `Nc1ccc(C(=O)O)cc1` [Cocrystal 1e, p-aminobenzoic acid], the “Cytotoxic activity 3T3 cell line (IC50 = µM ± SEM)” value in series [1] is “Non-cytotoxic”.
As for `Nc1nc[nH]n1` [Cocrystal 1f, amitrole], the “Cytotoxic activity 3T3 cell line (IC50 = µM ± SEM)” value in series [1] (3T3 normal mouse fibroblast, MTT, 48 h, 1-30 µM) is reported as “Non-cytotoxic”. In addition, the IC50 in series [3] is 78 ± 0.96 µM. The “Percent Inhibitions” value in series [3] (Table S1, concentration 46.95 (unit not given)) was determined as 44.0%; in series [3] (Table S1, concentration 93.88 (unit not given)), 53.1%; in series [3] (Table S1, concentration 187 (unit not given)) it was 63.01%.
With `C[C@@H]1C[C@@H]([C@H](O)CC2CC(=O)NC(=O)C2)C(=O)[C@@H](C)C1` [cyclohexamide, reference compound], inhibition in “in vitro” was half-maximal at 0.8 ± 0.14 µM (IC50 at 48 h).
`CCCCCCCCCCCCCCCCOP(=O)([O-])OCC[N+](C)(C)C` [miltefosine, hexadecylphosphocholine, reference compound]: in series [4], the “Inhibitory effect on cell proliferation of MIL-resistant L. tropica” value is “no inhibitory effects”. In series [3], the IC50 was determined as 169.55 ± 0.078 µM.
